{"source": "patent US11166974B2", "about": "“Ophthalmic solution comprising Diquafosol” (Santen Pharmaceutical Co., Ltd., priority 2012, dated 2021)", "origin": "cited, not measured here", "test_system": "corneal epithelium disorder of dry eye patients", "details": "instillation of an ophthalmic solution; NPD 1", "data": [{"smiles": "O=c1ccn([C@@H]2O[C@H](COP(=O)([O-])OP(=O)([O-])OP(=O)([O-])OP(=O)([O-])OC[C@H]3O[C@@H](n4ccc(=O)[nH]c4=O)[C@H](O)[C@@H]3O)[C@@H](O)[C@H]2O)c(=O)[nH]1.[Na+].[Na+].[Na+].[Na+]", "note": "[diquafosol tetrasodium salt]", "values": [{"measurement": "corneal epithelium disorder of dry eye patients", "value": "improved corneal epithelium disorder"}]}]}
